Source: patent US6197760A (priority 2000, dated 2001)
“Also recorded” adds a separate entry of the source.

Tests used:
HeLa cells = conditions: in vitro; cited from earlier work
[1] = tested on: MCF-7 mammary tumor xenograft; parameters: species or system human; conditions: in vivo; for Days delay (T-C): sc
LOX-IMVI melanoma = test: Evaluation against i.p. implanted LOX-IMVI melanoma (Table 6); assay type: in vivo, human; conditions: for 55-Day Surv./Total / % ILS / Median Day of Death: IP, Q1DX1 (1)
Description: BM-IPM was evaluated vs. human LOX-IMVI melanoma and produced a 52% increase in life span (ILS) and 20% survivors, while IPM yielded an identical ILS with no survivors.
Evaluation of BM-IPM Against I.P. Implanted Human
Treatment: IP: Q1DX1 (1) Therapeutic Response

mammary tumor 16/C = tested on: mammary tumor 16/C; parameters: species or system murine; conditions: mouse, in vivo
M5076 sarcoma = test: Response of s.c. implanted M5076 sarcoma (Table 4); assay type: in vivo, murine; conditions: for days T-C: Table 4, dose not given
Description: Response of S.C. Implanted M5076 Sarcoma to Treatment with
The compounds were injected i.p. daily on days 11-15.

P388 leukemia = tested on: P388 leukemia; parameters: species or system murine; conditions: mouse, in vivo; for 45-Day Surv/Total / % ILS / Approx. Net Log10 Change In Tumor Burden at End of Rx / Median Day of Death: ip, 100 mg/kg
[2] = tested on: MX-1 mammary tumor xenograft; assay type: in vivo, human; conditions: experiment analogous to MCF-7
[3] = tested on: experimental leukemias and solid tumors; parameters: species or system mice and rats; conditions: in vivo
[4] = 18 mg/kg i.p. daily on days 11-15
[5] = 27 mg/kg i.p. daily on days 11-15
[6] = 40 mg/kg i.p. daily on days 11-15

Compound | cytotoxicity to HeLa cells (HeLa cells) | Days delay (T-C) [1] | tumor response / comparative activity vs. 16/C (mammary tumor 16/C) | Days delay (T-C) (M5076 sarcoma; [4]) | Days to 2 Doublings (M5076 sarcoma; [4]) | Tumor-free Surv/Total (M5076 sarcoma; [4]) | Days delay (T-C) (M5076 sarcoma; [5]) | Days to 2 Doublings (M5076 sarcoma; [5]) | Tumor-free Surv/Total (M5076 sarcoma; [5]) | Days to 2 Doublings (M5076 sarcoma; [6]) | Tumor-free Surv/Total (M5076 sarcoma; [6]) | days T-C (M5076 sarcoma) | log cell kill (P388 leukemia) | 45-Day Surv/Total (P388 leukemia) | % ILS (P388 leukemia) | Approx. Net Log10 Change In Tumor Burden at End of Rx (P388 leukemia) | Median Day of Death (P388 leukemia) | activity vs. MX-1 [2] | further results
O=P(O)(NCCBr)NCCBr [BB-IPM] | cytotoxic to HeLa cells in vitro | 1.7 | – | – | – | – | – | – | – | – | – | – | – | – | – | – | – | – | –
O=P(O)(NCCCl)NCCBr [BC-IPM] | cytotoxic to HeLa cells in vitro | 5.8 | – | – | – | – | – | – | – | – | – | – | – | – | – | – | – | – | –
CS(=O)(=O)OCCNP(=O)(O)NCCBr [BM-IPM] | – | 4.7 | superior to the clinical drugs CPA and Ifos and to MM-IPM | 0.8 days | 10.1 days | 0/6 | 7.2 days | 16.5 days | 0/6 | Toxic | 0/6 | 7.2 days | 5.5 log | 0/5 | +73 | -5.5 | 19.0 | good activity; also recorded: more active but less so than CPA and Ifos | comparative activity vs. LOX melanoma (LOX-IMVI melanoma): comparably active to IPM but less active than CPA; 55-Day Surv./Total (LOX-IMVI melanoma; 15 mg/kg/dose): 0/5; % ILS (LOX-IMVI melanoma; 15 mg/kg/dose): +26%; Median Day of Death (LOX-IMVI melanoma; 15 mg/kg/dose): 24.0 days; 55-Day Surv./Total (LOX-IMVI melanoma; 30 mg/kg/dose): 1/5; % ILS (LOX-IMVI melanoma; 30 mg/kg/dose): +52%; Median Day of Death (LOX-IMVI melanoma; 30 mg/kg/dose): 29.0 days; increase in life span (ILS) (LOX-IMVI melanoma; Table 6): 52%; survivors (LOX-IMVI melanoma; Table 6): 20%
CS(=O)(=O)OCCCNP(=O)(O)NCCCl [CM3-IPM] | – | – | – | – | – | – | – | – | – | – | – | – | – | 0/5 | +9 | -0.7 | 12.0 | – | –
CS(=O)(=O)OCCNP(=O)(O)NCCCl [CM-IPM] | – | > 39.7 | superior to the clinical drugs CPA and Ifos and to MM-IPM; also recorded: comparable to BM-IPM vs. 16/C mammary tumor, and superior to CPA and Ifos vs. 16/C tumor | 2.3 days | 11.6 days | 0/6 | 12.2 days | 21.5 days | 0/6 | 32.5 days | 0/6 | 23.2 days | 6.1 log | 0/5 | +82 | -6.1 | 20.0 | only modest activity; also recorded: modestly active relative to CPA and Ifos | Days delay (T-C) (M5076 sarcoma; [6]): 23.2 days; comparative activity vs. MCF-7 [1]: equal in activity to Ifos, slightly superior to IPM and melphalan (the positive control) and significantly superior to CPA and all of the other analogs; also recorded: superior to MM-IPM, BC-IPM and CPA, slightly more active than IPM, and equally active to Ifos; comparative activity vs. three experimental leukemias and solid tumors [3]: superior to IPM and other IPM analogs, including MM-IPM, vs. all three tumors
